The text below walks through data of patent publication US20250066388A1, “1,3,4,7-TETRAHYDRO-2H-PYRROLO[3',2':5,6]PYRIDO[2,3-B][1,4]OXAZEPINE BCL-2 INHIBITORS” (AbbVie Inc., priority 2022, published 2025).

One assay has as its target Bcl-2 protein (Homo sapiens (Human), UniProt P10415). Kind of assay: TR-FRET binding assay, Bcl-2. To be noted: F-Bak peptide probe, GST-Bcl-2. As for the experimental part:
(§1) Determination of the utility of compounds having Formula (I) or Formula (II) as binders to and inhibitors of anti-apoptotic Bcl-2 proteins was performed using the Time Resolved-Fluorescence Resonance Energy Transfer (TR-FRET) Assay. Tb-anti-GST antibody was purchased from Invitrogen (Catalog No. PV4216).
A Bcl-2 human encoding sequence was cloned into a pET41A vector (Novagen). The protein was expressed with E. coli. BL21(DE3)-T1R strain in OETB autoinduction medium at 30° C. for 25 hours. The cell pellets were resuspended in lysis buffer (50 mM Tris, 140 mM NaCl, 1 mM DTT, 10% Glycerol, 2 mM MgCl2, pH 7.3) and lysed with Microfluidizer. The Bcl-2 protein in clarified cell-lysate was purified with affinity chromatography (GST and Ni-NTA). The eluate was loaded onto a Superdex 75 column and further purified with a Q Sepharose column. The protein was purified on a phenyl hydrophobic interaction column and dialyzed in the storage buffer (50 mM Tris, 50 mM NaCl, 2 mM DTT, pH 7.5) and stored at −80° C.
(§2) […] of a protein (Bcl-2 or Bcl-xL)/probe/antibody mixture pre-equilibrated for one hour in assay buffer was added to each well at final concentrations listed in Table 6 below.
(§3) The samples were then mixed on a shaker for 1 minute and equilibrated for an additional 3 hours at room temperature. For each assay plate, a probe/antibody and protein/antibody/probe mixture were included as a negative and a positive control, respectively. Fluorescence was measured on the Envision (Perkin Elmer) using a 340/35 nm excitation filter and 520/525 (F-Bak) and 495/510 nm (Tb-labeled anti-GST antibody) emission filters. Inhibition constants (Ki) were determined using Wang's equation (Wang FEBS Lett. 1995, 360, 111-114). The TR-FRET assay can be performed in the presence of varying concentrations of human serum (HS) to determine apparent half maximal inhibitory concentration (IC50) after HS protein binding.
(§4) Inhibition constants were determined using Wang's equation (Wang FEBS Lett. 1995, 360:111-4).

A further assay addresses Bcl-xL protein (Homo sapiens (Human), UniProt Q07817). Kind of assay: TR-FRET binding assay, Bcl-xL. Particulars: F-Bak peptide probe. As for the experimental part: as §1
A human Bcl-xL encoding sequence was cloned into a pET41A vector. The protein was expressed with E. coli. BL21(DE3)-T1R strain in OETB autoinduction medium at 30° C. for 25 hours. The cell pellets were resuspended in lysis buffer (50 mM Tris, 140 mM NaCl, 1 mM DTT, 10% Glycerol, 0.1% Triton X-100, pH 7.5) and lysed with Microfluidizer. The Bcl-xL protein in clarified cell-lysate was purified with GST affinity chromatography. The eluate was dialyzed in the storage buffer (1×PBS, 10% Glycerol, 2 mM DTT, 1 mM Sodium Azide, pH 7.4) and stored at −80° C.
as §2, §3, §4
(In general: In TR-FRET formats the signal depends on donor and acceptor labels being close together.)

Broadly, the Ki is the equilibrium dissociation constant of an inhibitor or competing ligand from its target. The low end stands for tighter binding, the high end for weaker binding.

Chain of Bcl-2 protein (P10415 other isoform, or with tags, fused parts or gaps): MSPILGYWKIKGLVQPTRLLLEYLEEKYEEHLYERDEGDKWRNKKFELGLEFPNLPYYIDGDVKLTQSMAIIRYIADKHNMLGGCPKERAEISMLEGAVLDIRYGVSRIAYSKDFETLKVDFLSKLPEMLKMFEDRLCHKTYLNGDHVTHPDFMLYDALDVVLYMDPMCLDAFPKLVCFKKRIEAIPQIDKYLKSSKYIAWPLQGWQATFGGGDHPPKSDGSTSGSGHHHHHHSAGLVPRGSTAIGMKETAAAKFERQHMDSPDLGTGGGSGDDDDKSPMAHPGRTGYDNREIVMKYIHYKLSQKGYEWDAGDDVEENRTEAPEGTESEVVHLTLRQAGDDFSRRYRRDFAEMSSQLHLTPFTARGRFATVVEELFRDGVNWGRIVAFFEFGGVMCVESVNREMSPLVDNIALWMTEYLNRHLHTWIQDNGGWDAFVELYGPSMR
Chain of Bcl-xL protein (Q07817 other isoform, or with tags, fused parts or gaps): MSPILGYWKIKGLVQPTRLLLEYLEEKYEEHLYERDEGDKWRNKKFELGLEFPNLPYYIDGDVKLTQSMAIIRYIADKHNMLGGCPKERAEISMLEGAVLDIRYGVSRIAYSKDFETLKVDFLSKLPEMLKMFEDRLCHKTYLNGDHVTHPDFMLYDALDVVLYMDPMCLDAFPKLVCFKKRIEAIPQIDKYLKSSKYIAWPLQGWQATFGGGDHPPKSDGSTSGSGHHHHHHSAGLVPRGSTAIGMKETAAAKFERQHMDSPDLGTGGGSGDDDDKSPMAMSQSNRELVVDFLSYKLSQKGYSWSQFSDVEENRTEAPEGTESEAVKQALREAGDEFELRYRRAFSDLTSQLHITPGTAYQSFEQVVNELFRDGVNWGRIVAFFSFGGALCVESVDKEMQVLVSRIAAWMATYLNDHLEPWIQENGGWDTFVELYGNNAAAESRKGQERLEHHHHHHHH

With `CC1(C)CC(c2ccc(Cl)cc2)=C2CN3CCN(c4ccc(C(=O)NS(=O)(=O)c5cnc(OCC6(F)CCN(C7COC7)CC6)c(Cl)c5)c(N5CCCOc6nc7[nH]ccc7cc65)c4)C[C@H]3COCCCO[C@@H]2C1` [Example 4, N-((5-chloro-6-((4-fluoro-1-(oxetan-3-yl)piperidin-4-yl)methoxy)pyridin-3-yl)sulfonyl)-4-((4aS,10aR)-14-(4-chlorophenyl)-12,12-dimethyl-1,2,4a,5,8,9,10a,11,13,15-decahydro-7H,12H-benzo[f]pyrazino[2,1-c][1,8]dioxa[4]azacycloundecin-3(4H)-yl)-2-(3,4-dihydro-2H-pyrrolo[3′,2′:5,6]pyrido[2,3-b][1,4]oxazepin-1(7H)-yl)benzamide], the values for the Ki on Bcl-2 protein and on Bcl-xL protein were 0.28 nM and 18.8 nM, respectively.

Turning to `CO[C@H]1CC[C@H](CNc2ccc(S(=O)(=O)NC(=O)c3ccc(N4CCN5CC6=C(c7ccc(Cl)cc7)CC(C)(C)C[C@H]6OCCCOC[C@@H]5C4)cc3N3CCCOc4nc5[nH]ccc5cc43)cc2[N+](=O)[O-])CC1` [Example 5, 4-((4aS,10aR)-14-(4-chlorophenyl)-12,12-dimethyl-1,2,4a,5,8,9,10a,11,13,15-decahydro-7H,12H-benzo[f]pyrazino[2,1-c][1,8]dioxa[4]azacycloundecin-3(4H)-yl)-2-(3,4-dihydro-2H-pyrrolo[3′,2′:5,6]pyrido[2,3-b][1,4]oxazepin-1(7H)-yl)-N-((4-((((1r,4r)-4-methoxycyclohexyl)methyl)amino)-3-nitrophenyl)sulfonyl)benzamide], the Ki was 0.149 nM on Bcl-2 protein and 20 nM on Bcl-xL protein.

For `CC1(C)CC(c2ccc(Cl)cc2)=C2CN3CCN(c4ccc(C(=O)NS(=O)(=O)c5cnc(OCC6(F)CCOCC6)c(Cl)c5)c(N5CCCOc6nc7[nH]ccc7cc65)c4)C[C@H]3COCCCO[C@@H]2C1` [Example 7, N-((5-chloro-6-((4-fluorotetrahydro-2H-pyran-4-yl)methoxy)pyridin-3-yl)sulfonyl)-4-((4aS,10aR)-14-(4-chlorophenyl)-12,12-dimethyl-1,2,4a,5,8,9,10a,11,13,15-decahydro-7H,12H-benzo[f]pyrazino[2,1-c][1,8]dioxa[4]azacycloundecin-3(4H)-yl)-2-(3,4-dihydro-2H-pyrrolo[3′,2′:5,6]pyrido[2,3-b][1,4]oxazepin-1(7H)-yl)benzamide], the inhibitory constant (Ki) at Bcl-2 protein was 0.0503 nM; on Bcl-xL protein, greater than 661 nM.

With `CC1(C)CC(c2ccc(Cl)cc2)=C2CN3CCN(c4ccc(C(=O)NS(=O)(=O)c5ccc(NC[C@H]6C[C@@](O)(CF)C6)c([N+](=O)[O-])c5)c(N5CCCOc6nc7[nH]ccc7cc65)c4)C[C@H]3COCCCO[C@@H]2C1` [Example 8, 4-((4aS,10aR)-14-(4-chlorophenyl)-12,12-dimethyl-1,2,4a,5,8,9,10a,11,13,15-decahydro-7H,12H-benzo[f]pyrazino[2,1-c][1,8]dioxa[4]azacycloundecin-3(4H)-yl)-2-(3,4-dihydro-2H-pyrrolo[3′,2′:5,6]pyrido[2,3-b][1,4]oxazepin-1(7H)-yl)-N-((4-((((1r,3r)-3-(fluoromethyl)-3-hydroxycyclobutyl)methyl)amino)-3-nitrophenyl)sulfonyl)benzamide], the Ki at Bcl-2 protein was 0.448 nM; on Bcl-xL protein, 0.125 nM.

For `CC1(C)CC(c2ccc(Cl)cc2)=C2CN3CCN(c4ccc(C(=O)NS(=O)(=O)c5ccc(OCC6(F)CCN(C7COC7)CC6)c(Cl)c5)c(N5CCCOc6nc7[nH]ccc7cc65)c4)C[C@H]3COCCCO[C@@H]2C1` [Example 9, N-(3-chloro-4-{[4-fluoro-1-(oxetan-3-yl)piperidin-4-yl]methoxy}benzene-1-sulfonyl)-4-[(4aS,10aR)-14-(4-chlorophenyl)-12,12-dimethyl-1,2,4a,5,8,9,11,12,13,15-decahydro-7H,10aH-pyrazino[2,1-g][1,5,8]benzodioxazacycloundecin-3(4H)-yl]-2-(3,4-dihydro-2H-pyrrolo[3′,2′:5,6]pyrido[2,3-b][1,4]oxazepin-1(7H)-yl)benzamide], the Ki on Bcl-2 protein worked out at 0.267 nM; at Bcl-xL protein, 20.6 nM.

`CC1(C)CC(c2ccc(Cl)cc2)=C2CN3CCN(c4ccc(C(=O)NS(=O)(=O)c5cnc(OC[C@]6(F)CC[C@@H](N7CCOCC7)CC6)c(Cl)c5)c(N5CCCOc6nc7[nH]ccc7cc65)c4)C[C@H]3COCCCO[C@@H]2C1` [Example 10, N-((5-chloro-6-(((1s,4s)-1-fluoro-4-morpholinocyclohexyl)methoxy)pyridin-3-yl)sulfonyl)-4-((4aS,10aR)-14-(4-chlorophenyl)-12,12-dimethyl-1,2,4a,5,8,9,10a,11,13,15-decahydro-7H,12H-benzo[f]pyrazino[2,1-c][1,8]dioxa[4]azacycloundecin-3(4H)-yl)-2-(3,4-dihydro-2H-pyrrolo[3′,2′:5,6]pyrido[2,3-b][1,4]oxazepin-1(7H)-yl)benzamide]: the Ki came to 0.66 nM on Bcl-2 protein and 5.91 nM at Bcl-xL protein.

With `CC1(C)CC(c2ccc(Cl)cc2)=C2CN3CCN(c4ccc(C(=O)NS(=O)(=O)c5cnc(OC[C@]6(F)CC[C@H](N7CCOCC7)CC6)c(Cl)c5)c(N5CCCOc6nc7[nH]ccc7cc65)c4)C[C@H]3COCCCO[C@@H]2C1` [Example 11, N-((5-chloro-6-(((1r,4r)-1-fluoro-4-morpholinocyclohexyl)methoxy)pyridin-3-yl)sulfonyl)-4-((4aS,10aR)-14-(4-chlorophenyl)-12,12-dimethyl-1,2,4a,5,8,9,10a,11,13,15-decahydro-7H,12H-benzo[f]pyrazino[2,1-c][1,8]dioxa[4]azacycloundecin-3(4H)-yl)-2-(3,4-dihydro-2H-pyrrolo[3′,2′:5,6]pyrido[2,3-b][1,4]oxazepin-1(7H)-yl)benzamide], the Ki came out at 0.936 nM on Bcl-2 protein and 17.3 nM on Bcl-xL protein.

For the molecule `CO[C@H]1CC[C@H](CNc2ccc(S(=O)(=O)NC(=O)c3ccc(N4CCN5CC6=C(c7ccc(Cl)cc7)CC(C)(C)C[C@H]6OCCCOC[C@@H]5C4)cc3N3CCCOc4nc5[nH]ccc5cc43)cc2[N+](=O)[O-])OC1` [Example 13, 4-((4aS,10aR)-14-(4-chlorophenyl)-12,12-dimethyl-1,2,4a,5,8,9,10a,11,13,15-decahydro-7H,12H-benzo[f]pyrazino[2,1-c][1,8]dioxa[4]azacycloundecin-3(4H)-yl)-2-(3,4-dihydro-2H-pyrrolo[3′,2′:5,6]pyrido[2,3-b][1,4]oxazepin-1(7H)-yl)-N-((4-((((2R,5S)-5-methoxytetrahydro-2H-pyran-2-yl)methyl)amino)-3-nitrophenyl)sulfonyl)benzamide], the Ki was found to be 0.35 nM at Bcl-2 protein and 6.8 nM on Bcl-xL protein.

`CC1(C)CC(c2ccc(Cl)cc2)=C2CN3CCN(c4ccc(C(=O)NS(=O)(=O)c5ccc(NC[C@H]6C[C@](O)(CF)C6)c([N+](=O)[O-])c5)c(N5CCCOc6nc7[nH]ccc7cc65)c4)C[C@H]3COCCCO[C@@H]2C1` [Example 16, 4-((4aS,10aR)-14-(4-chlorophenyl)-12,12-dimethyl-1,2,4a,5,8,9,10a,11,13,15-decahydro-7H,12H-benzo[f]pyrazino[2,1-c][1,8]dioxa[4]azacycloundecin-3(4H)-yl)-2-(3,4-dihydro-2H-pyrrolo[3′,2′:5,6]pyrido[2,3-b][1,4]oxazepin-1(7H)-yl)-N-((4-((((1s,3s)-3-(fluoromethyl)-3-hydroxycyclobutyl)methyl)amino)-3-nitrophenyl)sulfonyl)benzamide]: the Ki was 0.297 nM on Bcl-2 protein and 15 nM on Bcl-xL protein.

As for `COCCN1CCC(F)(COc2ncc(S(=O)(=O)NC(=O)c3ccc(N4CCN5CC6=C(c7ccc(Cl)cc7)CC(C)(C)C[C@H]6OCCCOC[C@@H]5C4)cc3N3CCCOc4nc5[nH]ccc5cc43)cc2Cl)CC1` [Example 22, N-((5-chloro-6-((4-fluoro-1-(2-methoxyethyl)piperidin-4-yl)methoxy)pyridin-3-yl)sulfonyl)-4-((4aS,10aR)-14-(4-chlorophenyl)-12,12-dimethyl-1,2,4a,5,8,9,10a,11,13,15-decahydro-7H,12H-benzo[f]pyrazino[2,1-c][1,8]dioxa[4]azacycloundecin-3(4H)-yl)-2-(3,4-dihydro-2H-pyrrolo[3′,2′:5,6]pyrido[2,3-b][1,4]oxazepin-1(7H)-yl)benzamide], the Ki on Bcl-2 protein was 0.339 nM; on Bcl-xL protein, 14.7 nM.
